Columns and labels:
[1] = target: GABA-A receptor; anion channel; assay: Binding affinity against benzodiazepine site of gamma-aminobutyric-acid A receptor of rat cerebral cortex by using [3H]flunitrazepam in the presence of GABA 1 mM.; format: tissue-based
[2] = target: GABA-A receptor; anion channel; assay: Binding affinity against benzodiazepine site of gamma-aminobutyric-acid A receptor of rat cerebral cortex by using [3H]flunitrazepam in the absence of GABA.; format: tissue-based
[3] = tested on: Rattus norvegicus; assay: Minimum effective dose as dose required to release behavior in suppressed rats by conflict test after intraperitoneal administration.; format: functional; conditions: ip, read-out: MED
[4] = tested on: Mus musculus; assay: The ability to block the tonic-clonic component of seizures induced by metrazole in mice after intraperitoneal administration.; format: functional; conditions: ip
[5] = target: GABA-A receptor; anion channel (Rattus norvegicus) (UniProt O09028+P15431+P18506+P18508+P19969+P20236+P23574+P23576+P28471+P28473+P30191+P62813+P63079+P63138+Q91ZM7+Q9ES14); assay: GABA shift as the ratio of IC50 (no GABA) to that of IC50 (GABA); GABA shift; format: protein-complex assay

## O=C(Nc1ccc(Cl)cc1)C1=C(O)CCn2c1nc1ccccc12
[1]
  IC50: 265 nM
[2]
  IC50: 620 nM
[3]
  minimal effective dose: 1 mg/kg
[4]
  ED50: 8.9 mg/kg
[5]
  GS: 2.3

## O=C(Nc1c(Cl)cccc1Cl)C1=C(O)CCn2c1nc1ccccc12
[1]
  IC50: 170 nM
[2]
  IC50: 320 nM
[3]
  minimal effective dose: > 10 mg/kg
[4]
  ED50: > 30 mg/kg
[5]
  GS: 1.9

## CN1C2=C(C(=O)Nc3ccccc3)C(=O)CCN2c2ccccc21
[1]
  IC50: 2.1 nM
[2]
  IC50: 5.8 nM
[3]
  minimal effective dose: 1 mg/kg
[4]
  ED50: 0.13 mg/kg
[5]
  GS: 2.8

## CCO/C(O)=C1\C(=O)CCn2c1nc1ccccc12
[1]
  IC50: 840 nM
[2]
  IC50: 675 nM
[4]
  ED50: > 10 mg/kg
[5]
  GS: 0.68

## O=C(Nc1c(F)cccc1F)C1=C(O)CCn2c1nc1ccccc12
[1]
  IC50: 1.7 nM
[2]
  IC50: 2.8 nM
[3]
  minimal effective dose: 0.1 mg/kg
[4]
  ED50: 0.85 mg/kg
[5]
  GS: 1.6

## OC1=C(/C(S)=N/c2ccccc2)c2nc3ccccc3n2CC1
[1]
  IC50: 320 nM
[2]
  IC50: 360 nM
[3]
  minimal effective dose: > 10 mg/kg
[4]
  ED50: > 10 mg/kg
[5]
  GS: 1.1

## O=C(Nc1cccc(Cl)c1)C1=C(O)CCn2c1nc1ccccc12
[1]
  IC50: 95 nM
[2]
  IC50: 120 nM
[3]
  minimal effective dose: > 10 mg/kg
[4]
  ED50: > 30 mg/kg
[5]
  GS: 1.3

## O=C(Nc1ccccc1Cl)C1=C(O)CCn2c1nc1ccccc12
[1]
  IC50: 5.3 nM
[2]
  IC50: 12 nM
[3]
  minimal effective dose: 10 mg/kg
[4]
  ED50: 0.95 mg/kg
[5]
  GS: 2.3

## CN1C2=C(C(=O)Nc3ccccc3F)C(=O)CCN2c2ccccc21
[1]
  IC50: 0.26 nM
[2]
  IC50: 0.42 nM
[3]
  minimal effective dose: 0.03 mg/kg
[4]
  ED50: 0.019 mg/kg
[5]
  GS: 1.6

## COc1cccc(NC(=O)C2=C(O)CCn3c2nc2ccccc23)c1
[1]
  IC50: 16 nM
[2]
  IC50: 26 nM
[3]
  minimal effective dose: 5 mg/kg
[4]
  ED50: > 10 mg/kg
[5]
  GS: 1.6

## O=C(NC1CC1)C1=C(O)CCn2c1nc1ccccc12
[1]
  IC50: 18 nM
[2]
  IC50: 16 nM
[3]
  minimal effective dose: > 10 mg/kg
[4]
  ED50: > 10 mg/kg
[5]
  GS: 0.87

## O=C1CCn2c(nc3ccccc32)/C1=C(\O)Oc1ccccc1
[1]
  IC50: 150 nM
[2]
  IC50: 200 nM
[3]
  minimal effective dose: > 10 mg/kg
[4]
  ED50: 9.9 mg/kg
[5]
  GS: 1.4

## O=C(NC1CCC1)C1=C(O)CCn2c1nc1ccccc12
[1]
  IC50: 25 nM
[2]
  IC50: 30 nM
[3]
  minimal effective dose: 10 mg/kg
[4]
  ED50: > 30 mg/kg
[5]
  GS: 1.2

## O=C(Nc1ccccc1)c1c(O)ccn2c1nc1ccccc12
[1]
  IC50: 14 nM
[2]
  IC50: 24 nM
[3]
  minimal effective dose: 10 mg/kg
[4]
  ED50: 0.39 mg/kg
[5]
  GS: 1.7

## COc1ccc(NC(=O)C2=C(O)CCn3c2nc2ccccc23)cc1
[1]
  IC50: 16 nM
[2]
  IC50: 41 nM
[3]
  minimal effective dose: 10 mg/kg
[4]
  ED50: 2 mg/kg
[5]
  GS: 2.6

## CN1C(=O)CN=C(c2ccccc2)c2cc(Cl)ccc21 [DIAZEPAM]
[3]
  minimal effective dose: 5 mg/kg
[4]
  ED50: 0.11 mg/kg
[5]
  GS: 2.2

## O=C(NC1CCCCC1)C1=C(O)CCn2c1nc1ccccc12
[1]
  IC50: 72 nM
[2]
  IC50: 140 nM
[3]
  minimal effective dose: 10 mg/kg
[4]
  ED50: 3 mg/kg
[5]
  GS: 2

## COc1ccccc1NC(=O)C1=C(O)CCn2c1nc1ccccc12
[1]
  IC50: 940 nM
[2]
  IC50: 990 nM
[3]
  minimal effective dose: > 10 mg/kg
[4]
  ED50: > 10 mg/kg
[5]
  GS: 1.1

## O=C1CCN2C(=C1C(=O)Nc1ccccc1)Nc1ccccc12
[1]
  IC50: 5.9 nM
[2]
  IC50: 9.1 nM
[3]
  minimal effective dose: 10 mg/kg
[4]
  ED50: 5.2 mg/kg
[5]
  GS: 1.5

## CN(C(=O)C1=C(O)CCn2c1nc1ccccc12)c1ccccc1
[1]
  IC50: > 10000 nM
[2]
  IC50: > 10000 nM
[3]
  minimal effective dose: > 10 mg/kg
[4]
  ED50: > 10 mg/kg

## NC(=O)C1=C(O)CCn2c1nc1ccccc12
[1]
  IC50: 6000 nM
[2]
  IC50: 2400 nM
[3]
  minimal effective dose: 10 mg/kg
[4]
  ED50: > 30 mg/kg
[5]
  GS: 0.4

## O=C(Nc1ccccc1F)C1=C(O)CCn2c1nc1ccccc12
[1]
  IC50: 1.4 nM
[2]
  IC50: 1.7 nM
[3]
  minimal effective dose: 1 mg/kg
[4]
  ED50: 0.16 mg/kg
[5]
  GS: 1.2

## CCN1C2=C(C(=O)Nc3ccccc3)C(=O)CCN2c2ccccc21
[1]
  IC50: 1.4 nM
[2]
  IC50: 2.1 nM
[3]
  minimal effective dose: 0.3 mg/kg
[4]
  ED50: 0.083 mg/kg
[5]
  GS: 1.6

## O=C1CCn2c(nc3ccccc32)/C1=C(\O)Sc1ccccc1
[1]
  IC50: 26 nM
[2]
  IC50: 29 nM
[3]
  minimal effective dose: > 10 mg/kg
[4]
  ED50: > 30 mg/kg
[5]
  GS: 1.1

## O=C1CCN2C(=C1C(=O)Nc1ccccc1)N(Cc1ccccc1)c1ccccc12
[1]
  IC50: 2.7 nM
[2]
  IC50: 12 nM
[3]
  minimal effective dose: 10 mg/kg
[4]
  ED50: 1.4 mg/kg
[5]
  GS: 4.6

## O=C(Nc1ccccc1F)c1c(O)ccn2c1nc1ccccc12
[1]
  IC50: 0.11 nM
[2]
  IC50: 0.23 nM
[3]
  minimal effective dose: 0.1 mg/kg
[4]
  ED50: 0.088 mg/kg
[5]
  GS: 2.1

From ChEMBL document CHEMBL1128598, “Potential anxiolytic agents. Pyrido[1,2-a]benzimidazoles: a new structural class of ligands for the benzodiazepine binding site on GABA-A receptors” (J Med Chem, 1995)
